In patent US6489469B1, “Method for storing or transporting erythritol solution” (Nikken Chemicals Co., Ltd., priority 1999, dated 2002):

How the values were obtained:
[1] = tested on: Bacillus subtilis IFO 3134; experiment: Viable Count of Bacillus subtilis IFO 3134 in Erythritol Solution; format: cell-based
Description: (§1) Erythritol solutions of respective concentrations in the range of from 30 to 60% were prepared. To these were inoculated Staphylococcus aureus IFO 13276, Bacillus subtilis IFO 3134, and Escherichia coli IFO 3972 as bacteria, Candida albicans IFO 1549 and Saccharomyces cerevisiae ATCC 9763 as yeasts, Aspergillus niger IFO 6342, Aspergillus flavus IFO 6343, and Penicillium funiculosum IFO 6345 as fungi, respectively, in a population (concentration) of 10,000 cells/mL or more. After the inoculation, the solutions were stored at 30, 37, 45, 50, or 60° C., respectively, for 56 days and the number of viable cell was determined daily. The determination of the number of viable cell was performed by a method of coating 0.1 mL of appropriately diluted sample cultivation on an agar plate and cultivating and counting the number of viable cell (the number of colony) that grew after the cultivation.

[2] = tested on: Saccharomyces cerevisiae ATCC 9763; experiment: Viable Count of Saccharomyces cerevisiae ATCC 9763 in Erythritol Solution; format: cell-based
Description: as §1

OC[C@@H](O)[C@@H](O)CO [Erythritol Solution, erythritol]
750 cells/mL: The Number of Viable Cell ([1]; 30° C., 30% w/w, Day 28)
440 cells/mL: The Number of Viable Cell ([1]; 30° C., 30% w/w, Day 7)
1480 cells/mL: The Number of Viable Cell ([2]; 45° C., 30% w/w, Day 3)
11500 cells/mL: The Number of Viable Cell ([1]; 37° C., 30% w/w, Day 7)
30 cells/mL: The Number of Viable Cell ([1]; 45° C., 50% w/w, Day 3)
3 days: time after which microbes died ([1]; temperature of 50° C. or more) | time after which microbes died ([2]; temperature of 50° C. or more)
20 cells/mL: The Number of Viable Cell ([1]; 30° C., 40% w/w, Day 14)
≥ 10000 cells/mL: The Number of Viable Cell ([2]; 37° C., 30% w/w, Day 0) | The Number of Viable Cell ([2]; 37° C., 30% w/w, Day 3) | The Number of Viable Cell ([2]; 37° C., 30% w/w, Day 7) | The Number of Viable Cell ([2]; 37° C., 30% w/w, Day 14) | The Number of Viable Cell ([2]; 37° C., 30% w/w, Day 28) | The Number of Viable Cell ([2]; 37° C., 40% w/w, Day 0) | The Number of Viable Cell ([2]; 37° C., 40% w/w, Day 3) | The Number of Viable Cell ([2]; 37° C., 40% w/w, Day 7) | The Number of Viable Cell ([2]; 37° C., 40% w/w, Day 14) | The Number of Viable Cell ([2]; 45° C., 30% w/w, Day 0) | The Number of Viable Cell ([2]; 45° C., 40% w/w, Day 0) | The Number of Viable Cell ([2]; 45° C., 50% w/w, Day 0) | The Number of Viable Cell ([2]; 50° C., 30% w/w, Day 0) | The Number of Viable Cell ([2]; 50° C., 40% w/w, Day 0) | The Number of Viable Cell ([2]; 50° C., 50% w/w, Day 0)
2980 cells/mL: The Number of Viable Cell ([1]; 30° C., 30% w/w, Day 3)
prevented from growing: growth of the microbes ([1]; temperature of 50° C. or more) | growth of the microbes ([2]; temperature of 50° C. or more)
1600 cells/mL: The Number of Viable Cell ([2]; 45° C., 50% w/w, Day 3)
300 cells/mL: The Number of Viable Cell ([1]; 30° C., 40% w/w, Day 3)
10000 or more cells/mL: The Number of Viable Cell ([1]; 30° C., 30% w/w, Day 0) | The Number of Viable Cell ([1]; 30° C., 40% w/w, Day 0) | The Number of Viable Cell ([1]; 37° C., 30% w/w, Day 0) | The Number of Viable Cell ([1]; 37° C., 40% w/w, Day 0) | The Number of Viable Cell ([1]; 45° C., 30% w/w, Day 0) | The Number of Viable Cell ([1]; 45° C., 50% w/w, Day 0) | The Number of Viable Cell ([1]; 50° C., 30% w/w, Day 0) | The Number of Viable Cell ([1]; 50° C., 40% w/w, Day 0) | The Number of Viable Cell ([1]; 50° C., 50% w/w, Day 0)
0 cells/mL: The Number of Viable Cell ([1]; 30° C., 30% w/w, Day 56) | The Number of Viable Cell ([1]; 30° C., 40% w/w, Day 7) | The Number of Viable Cell ([1]; 30° C., 40% w/w, Day 28) | The Number of Viable Cell ([1]; 30° C., 40% w/w, Day 56) | The Number of Viable Cell ([1]; 37° C., 30% w/w, Day 56) | The Number of Viable Cell ([1]; 37° C., 40% w/w, Day 3) | The Number of Viable Cell ([1]; 37° C., 40% w/w, Day 7) | The Number of Viable Cell ([1]; 37° C., 40% w/w, Day 14) | The Number of Viable Cell ([1]; 37° C., 40% w/w, Day 28) | The Number of Viable Cell ([1]; 37° C., 40% w/w, Day 56) | The Number of Viable Cell ([1]; 45° C., 30% w/w, Day 14) | The Number of Viable Cell ([1]; 45° C., 30% w/w, Day 28) | The Number of Viable Cell ([1]; 45° C., 30% w/w, Day 56) | The Number of Viable Cell ([1]; 45° C., 50% w/w, Day 7) | The Number of Viable Cell ([1]; 45° C., 50% w/w, Day 14) | The Number of Viable Cell ([1]; 45° C., 50% w/w, Day 28) | The Number of Viable Cell ([1]; 45° C., 50% w/w, Day 56) | The Number of Viable Cell ([1]; 50° C., 30% w/w, Day 3) | The Number of Viable Cell ([1]; 50° C., 30% w/w, Day 7) | The Number of Viable Cell ([1]; 50° C., 30% w/w, Day 14) | The Number of Viable Cell ([1]; 50° C., 30% w/w, Day 28) | The Number of Viable Cell ([1]; 50° C., 30% w/w, Day 56) | The Number of Viable Cell ([1]; 50° C., 40% w/w, Day 3) | The Number of Viable Cell ([1]; 50° C., 40% w/w, Day 7) | The Number of Viable Cell ([1]; 50° C., 40% w/w, Day 14) | The Number of Viable Cell ([1]; 50° C., 40% w/w, Day 28) | The Number of Viable Cell ([1]; 50° C., 40% w/w, Day 56) | The Number of Viable Cell ([1]; 50° C., 50% w/w, Day 3) | The Number of Viable Cell ([1]; 50° C., 50% w/w, Day 7) | The Number of Viable Cell ([1]; 50° C., 50% w/w, Day 14) | The Number of Viable Cell ([1]; 50° C., 50% w/w, Day 28) | The Number of Viable Cell ([1]; 50° C., 50% w/w, Day 56) | The Number of Viable Cell ([2]; 37° C., 30% w/w, Day 56) | The Number of Viable Cell ([2]; 37° C., 40% w/w, Day 56) | The Number of Viable Cell ([2]; 45° C., 30% w/w, Day 7) | The Number of Viable Cell ([2]; 45° C., 30% w/w, Day 14) | The Number of Viable Cell ([2]; 45° C., 30% w/w, Day 28) | The Number of Viable Cell ([2]; 45° C., 30% w/w, Day 56) | The Number of Viable Cell ([2]; 45° C., 40% w/w, Day 7) | The Number of Viable Cell ([2]; 45° C., 40% w/w, Day 14) | The Number of Viable Cell ([2]; 45° C., 40% w/w, Day 28) | The Number of Viable Cell ([2]; 45° C., 40% w/w, Day 56) | The Number of Viable Cell ([2]; 45° C., 50% w/w, Day 7) | The Number of Viable Cell ([2]; 45° C., 50% w/w, Day 14) | The Number of Viable Cell ([2]; 45° C., 50% w/w, Day 28) | The Number of Viable Cell ([2]; 45° C., 50% w/w, Day 56) | The Number of Viable Cell ([2]; 50° C., 30% w/w, Day 3) | The Number of Viable Cell ([2]; 50° C., 30% w/w, Day 7) | The Number of Viable Cell ([2]; 50° C., 30% w/w, Day 14) | The Number of Viable Cell ([2]; 50° C., 30% w/w, Day 28) | The Number of Viable Cell ([2]; 50° C., 30% w/w, Day 56) | The Number of Viable Cell ([2]; 50° C., 40% w/w, Day 3) | The Number of Viable Cell ([2]; 50° C., 40% w/w, Day 7) | The Number of Viable Cell ([2]; 50° C., 40% w/w, Day 14) | The Number of Viable Cell ([2]; 50° C., 40% w/w, Day 28) | The Number of Viable Cell ([2]; 50° C., 40% w/w, Day 56) | The Number of Viable Cell ([2]; 50° C., 50% w/w, Day 3) | The Number of Viable Cell ([2]; 50° C., 50% w/w, Day 7) | The Number of Viable Cell ([2]; 50° C., 50% w/w, Day 14) | The Number of Viable Cell ([2]; 50° C., 50% w/w, Day 28) | The Number of Viable Cell ([2]; 50° C., 50% w/w, Day 56)
1130 cells/mL: The Number of Viable Cell ([2]; 37° C., 40% w/w, Day 28)
1440 cells/mL: The Number of Viable Cell ([2]; 45° C., 40% w/w, Day 3)
110 cells/mL: The Number of Viable Cell ([1]; 30° C., 30% w/w, Day 14) | The Number of Viable Cell ([1]; 45° C., 30% w/w, Day 7)
170 cells/mL: The Number of Viable Cell ([1]; 37° C., 30% w/w, Day 3)
1000 cells/mL: The Number of Viable Cell ([1]; 37° C., 30% w/w, Day 28)
